Bounds are passed on as bounds.

From patent US9434724B2, “Quinuclidines for modulating alpha 7 activity” (priority 2014, dated 2016) come the findings set out here.

The target of one data set is hERG channels (Homo sapiens (Human), UniProt Q12809). The data set can be described thus: hERG inhibition assay (automated patch clamp, CHO cells). Type of data set: cell-based. As for the experimental part: hERG study was conducted with an automated patch clamp machine, Qpatch-48HT (Sophion Biosciences, Denmark). Cultured CHO cells stably expressing hERG channels (provided by Sophion Biosciences, Denmark) were harvested from culture flasks of 70-90% cell confluence rate and prepared as cell suspension with a cell density of 3-8×10^6 cells/mL in serum-free media (CHO-S-SFM II, cat#12052 Invitrogen; 25 mM HEPES). Cells in such condition were placed into a Qpatch cell stir chamber and used within 4 hours.
For each run, cells were first spun down by the built-in Qpatch centrifuge and re-suspended in an extracellular solution (in mM, 2 CaCl2, 1 MgCl2, 4 KCl, 145 NaCl, 10 Glucose, 10 HEPES, pH 7.4, osmolarity ˜305 mOsm). Qplate-48 that holds one cell in each of its 48 channels for the later voltage-clamped assay were primed with the extracellular solution and intracellular solution (in mM, 5.4 CaCl2, 1.75 MgCl2, 120 KCl, 10 HEPES, 5 EGTA, 4 NaATP, pH 7.25, Osmolarity ˜280-295 mOsm). Cells were dispatched by Qpatch robotic dispensing guns into each Qplate channel and went through the process of giga-ohm sealing and whole cell configuration. Whole-cell recordings were performed in voltage-clamp mode at a holding potential of −80 mV. […]

A further data set deals with CYP2C9 (Homo sapiens (Human), UniProt P11712). Kind of data set: Cytochrome P450 inhibition in human liver microsomes, CYP2C9. The conditions noted are these: read-out: 2C9 IC50, Protocol 1.
In a further data set the target is CYP2C19 (Homo sapiens (Human), UniProt P33261). The data set can be described thus: Cytochrome P450 inhibition in human liver microsomes, CYP2C19. The conditions noted are these: read-out: 2C19 IC50, Protocol 1.
The target of another data set is CYP3A4 (Homo sapiens (Human), UniProt P08684). The following applies: microsomes, 5 min.
The target in the next data set is CYP1A2 (Homo sapiens (Human), UniProt P05177). The data set can be described thus: Cytochrome P450 inhibition in human liver microsomes, CYP1A2. The conditions noted are these: read-out: 1A2 IC50, Protocol 1.
In another data set the target is Human α7 NAChR (Homo sapiens (Human), UniProt P36544). The data set can be described thus: Electrophysiology screen at 1 μM in Xenopus laevis oocytes. The conditions noted are these: 1 μM test compound; Imax = maximal current produced by 3 mM ACh. Type of data set: cell-based. As for the experimental part:
Human α7 NAChR plasmid was prepared by GeneWiz from accession NM_000746.5. Human α7 NAChR mRNA was prepared by TriLink at a concentration near 1 μg/μL. The human α7 NAChR mRNA was diluted in sterile water to a working concentration near 10 ng/μL.
Oocytes were obtained from Xenopus laevis frogs and treated with collagenase by Ecocyte Bioscience. Oocytes were injected with the working concentration of α7 NAChR mRNA at a volume of 50 nL for a total of approximately 0.5 ng of α7 NAChR mRNA. Oocytes were maintained in Barth's solution at a temperature of 16° C. The Barth's solution was replaced daily.
Two-electrode voltage clamp recordings were made 3-14 days following mRNA injections at a holding voltage of −70 mV. The NAChR recordings were performed in Ca^++-free Ringer solution (115 mM NaCl, 2 mM KCl, 1.8 mM BaCl2, 5 mM HEPES; pH˜7.4) to limit Ca^++-activated chloride currents.
In all oocyte recordings, drug and wash solutions were applied using a custom-designed microcapillary “linear array” which allows rapid application of agonists. Currents were recorded on a PC-based computer (PClamp, Molecular Devices, Sunnyvale, Calif.). Responses were reported as (I/Imax), where I is the amount of current given by a selected concentration of drug and Imax is the amount of maximal current produced by a 3 mM solution of ACh.
Stocks of test compounds were prepared in DMSO. Test solutions in Ringer were prepared immediately before application of test compound (final DMSO concentration of 0.1%). The final concentration of test compound in the test solution was 1 μM. The test solution was perfused onto the oocyte until a peak current was recorded. There was approximately two minutes of wash time with only the Ringer solution between each application of agonist. Measurement of the test solution was repeated between 2 and 6 times with a two minute wash time between each application of test solution. An average of the currents for each test compound was used to define the response for the test compound.

Data set [1] in a line: Caco-2 permeability assay. The class given is in vitro ADME. The conditions noted are these: human. As for the experimental part:
Caco-2 cells were obtained from American Tissue Culture Collection (Rockville, Md.). The cells were maintained in Modified Eagle's medium (MEM), containing 10% heat-inactivated fetal bovine serum (FCS) and 1% non-essential amino acids, in CO2 at 37° C. Cells were seeded on polycarbonate filter inserts (Millipore, CAT#PSHT 010 R5).
The cells were cultivated for 21-28 days prior to the transport experiments. The transepithelial electric resistance (TEER) and Lucifer Yellow permeability were checked routinely before and after the assay. Compounds were dissolved at 10 mM in 100% dimethyl sulfoxide (DMSO) and diluted for studies in Hank's Balanced Salt Solution (HBSS, Invitrogen, Cat#14025-092) with 25 mM HEPES, pH 7.4. Compounds were tested at 10 μM, and in both the apical-to-basolateral (A-B) and basolateral-to-apical (B-A) directions, at 37° C. for 90 min. At the end of incubation, donor samples were diluted 10-fold by assay buffer, then 60 μL of receiver and diluted-donor samples were mixed with 60 μL of acetonitrile, and analyzed by LC-MS/MS. The concentrations of the compounds were quantified by standard curve.

For data set [2], the target named is rat brain nicotinic receptor (α7 NAChR) (Rattus norvegicus (Rat), UniProt Q05941). Type of data set: binding. The following applies: Protocol No. 2; [3H] α-Bungarotoxin 0.4 nM, rat brain P2 membrane.
Sequence of rat brain nicotinic receptor (α7 NAChR) (Q05941 23-502 limits assumed): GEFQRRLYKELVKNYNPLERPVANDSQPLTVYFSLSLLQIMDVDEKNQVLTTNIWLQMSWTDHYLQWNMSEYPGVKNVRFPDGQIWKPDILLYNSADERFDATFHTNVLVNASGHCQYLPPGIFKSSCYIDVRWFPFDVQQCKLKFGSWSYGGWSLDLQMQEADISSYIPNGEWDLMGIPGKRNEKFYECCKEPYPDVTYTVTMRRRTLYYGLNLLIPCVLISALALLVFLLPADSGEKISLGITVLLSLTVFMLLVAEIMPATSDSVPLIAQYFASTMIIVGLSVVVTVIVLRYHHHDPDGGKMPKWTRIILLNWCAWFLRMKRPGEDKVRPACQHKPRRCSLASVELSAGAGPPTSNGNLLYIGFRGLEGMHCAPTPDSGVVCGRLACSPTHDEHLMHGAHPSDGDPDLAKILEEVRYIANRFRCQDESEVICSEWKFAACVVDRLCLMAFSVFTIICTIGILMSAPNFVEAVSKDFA

Sequence of CYP3A4 (P08684 whole entry): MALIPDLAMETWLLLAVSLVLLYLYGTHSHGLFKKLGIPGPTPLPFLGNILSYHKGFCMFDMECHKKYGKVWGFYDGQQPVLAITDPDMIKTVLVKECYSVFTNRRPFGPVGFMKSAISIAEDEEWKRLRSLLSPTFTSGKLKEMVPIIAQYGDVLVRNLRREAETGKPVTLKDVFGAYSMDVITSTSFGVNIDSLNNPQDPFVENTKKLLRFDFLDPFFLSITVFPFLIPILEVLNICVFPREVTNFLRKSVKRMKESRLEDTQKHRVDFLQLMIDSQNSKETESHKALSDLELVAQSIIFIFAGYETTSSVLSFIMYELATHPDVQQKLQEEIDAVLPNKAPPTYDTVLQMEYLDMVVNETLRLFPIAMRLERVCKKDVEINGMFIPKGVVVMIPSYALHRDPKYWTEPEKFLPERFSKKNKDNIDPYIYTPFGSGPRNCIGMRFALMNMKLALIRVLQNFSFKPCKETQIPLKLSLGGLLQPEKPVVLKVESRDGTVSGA
Sequence of Human α7 NAChR (P36544 23-502 limits assumed): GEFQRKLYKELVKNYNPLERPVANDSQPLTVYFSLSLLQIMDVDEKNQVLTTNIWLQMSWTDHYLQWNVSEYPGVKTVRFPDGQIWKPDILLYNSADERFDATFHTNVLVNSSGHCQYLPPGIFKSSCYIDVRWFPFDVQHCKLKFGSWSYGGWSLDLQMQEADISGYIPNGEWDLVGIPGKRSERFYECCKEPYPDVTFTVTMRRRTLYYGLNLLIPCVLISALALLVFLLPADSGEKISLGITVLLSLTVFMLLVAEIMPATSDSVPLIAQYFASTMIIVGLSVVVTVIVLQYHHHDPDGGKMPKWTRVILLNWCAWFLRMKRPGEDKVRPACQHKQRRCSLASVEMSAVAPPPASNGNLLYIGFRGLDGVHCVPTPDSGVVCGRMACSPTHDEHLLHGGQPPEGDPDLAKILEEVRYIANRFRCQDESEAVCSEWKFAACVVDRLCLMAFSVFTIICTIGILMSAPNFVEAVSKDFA
Sequence of hERG channels (Q12809 whole entry): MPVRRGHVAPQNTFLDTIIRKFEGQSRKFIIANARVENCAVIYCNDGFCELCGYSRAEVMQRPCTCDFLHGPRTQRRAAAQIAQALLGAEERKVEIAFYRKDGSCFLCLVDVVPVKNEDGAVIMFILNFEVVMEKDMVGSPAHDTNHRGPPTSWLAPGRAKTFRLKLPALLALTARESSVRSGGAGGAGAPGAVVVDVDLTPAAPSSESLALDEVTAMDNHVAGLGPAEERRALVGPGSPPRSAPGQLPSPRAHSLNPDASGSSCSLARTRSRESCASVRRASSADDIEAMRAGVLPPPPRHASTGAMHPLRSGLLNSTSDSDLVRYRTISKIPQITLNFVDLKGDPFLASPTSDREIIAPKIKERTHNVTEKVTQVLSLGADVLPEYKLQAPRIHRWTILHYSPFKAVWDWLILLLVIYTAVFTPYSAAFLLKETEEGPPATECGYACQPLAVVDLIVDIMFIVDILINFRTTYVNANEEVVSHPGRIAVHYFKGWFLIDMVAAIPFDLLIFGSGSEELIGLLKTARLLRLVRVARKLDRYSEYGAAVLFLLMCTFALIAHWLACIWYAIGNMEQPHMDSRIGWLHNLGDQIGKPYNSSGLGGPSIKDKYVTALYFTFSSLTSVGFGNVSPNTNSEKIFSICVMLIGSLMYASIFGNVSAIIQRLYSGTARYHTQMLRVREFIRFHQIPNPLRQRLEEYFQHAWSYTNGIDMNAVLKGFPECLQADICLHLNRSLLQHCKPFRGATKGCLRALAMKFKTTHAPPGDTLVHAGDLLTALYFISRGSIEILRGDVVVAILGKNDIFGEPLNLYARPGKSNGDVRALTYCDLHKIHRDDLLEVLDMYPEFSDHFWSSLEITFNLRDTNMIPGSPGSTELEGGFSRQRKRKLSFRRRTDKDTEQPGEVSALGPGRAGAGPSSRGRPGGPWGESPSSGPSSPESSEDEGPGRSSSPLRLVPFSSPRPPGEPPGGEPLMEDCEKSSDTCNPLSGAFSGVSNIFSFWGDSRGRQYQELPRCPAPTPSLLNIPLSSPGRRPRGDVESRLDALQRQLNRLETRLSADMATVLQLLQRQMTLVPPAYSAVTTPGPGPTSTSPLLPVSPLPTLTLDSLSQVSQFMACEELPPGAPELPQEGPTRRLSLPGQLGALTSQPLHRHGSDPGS
Sequence of CYP2C9 (P11712 whole entry): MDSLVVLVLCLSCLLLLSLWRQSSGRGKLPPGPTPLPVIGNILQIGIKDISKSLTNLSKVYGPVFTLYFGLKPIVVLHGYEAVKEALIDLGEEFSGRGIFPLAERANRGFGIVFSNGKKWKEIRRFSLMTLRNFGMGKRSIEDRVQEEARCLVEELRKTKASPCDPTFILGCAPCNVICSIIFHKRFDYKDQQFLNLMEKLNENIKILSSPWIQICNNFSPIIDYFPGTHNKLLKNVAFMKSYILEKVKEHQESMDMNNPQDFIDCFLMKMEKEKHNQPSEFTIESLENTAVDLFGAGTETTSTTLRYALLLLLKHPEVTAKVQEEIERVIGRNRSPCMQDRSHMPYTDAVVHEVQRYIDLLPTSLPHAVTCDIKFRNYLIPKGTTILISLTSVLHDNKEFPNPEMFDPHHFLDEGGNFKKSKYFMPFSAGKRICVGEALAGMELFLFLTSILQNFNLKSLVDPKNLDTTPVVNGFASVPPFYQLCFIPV
Sequence of CYP2C19 (P33261 whole entry): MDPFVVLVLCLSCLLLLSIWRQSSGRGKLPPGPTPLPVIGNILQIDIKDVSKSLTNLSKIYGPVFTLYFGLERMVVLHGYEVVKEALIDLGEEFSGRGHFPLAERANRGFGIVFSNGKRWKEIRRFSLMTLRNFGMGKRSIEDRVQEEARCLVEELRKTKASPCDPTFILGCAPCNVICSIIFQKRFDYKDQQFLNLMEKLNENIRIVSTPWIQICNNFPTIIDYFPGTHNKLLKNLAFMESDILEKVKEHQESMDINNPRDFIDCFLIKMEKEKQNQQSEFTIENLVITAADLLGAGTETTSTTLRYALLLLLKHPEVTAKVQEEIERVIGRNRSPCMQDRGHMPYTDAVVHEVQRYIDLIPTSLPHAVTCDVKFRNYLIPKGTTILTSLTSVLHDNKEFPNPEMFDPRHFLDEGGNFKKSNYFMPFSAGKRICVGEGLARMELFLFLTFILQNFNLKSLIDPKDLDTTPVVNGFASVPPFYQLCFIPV
Sequence of CYP1A2 (P05177 whole entry): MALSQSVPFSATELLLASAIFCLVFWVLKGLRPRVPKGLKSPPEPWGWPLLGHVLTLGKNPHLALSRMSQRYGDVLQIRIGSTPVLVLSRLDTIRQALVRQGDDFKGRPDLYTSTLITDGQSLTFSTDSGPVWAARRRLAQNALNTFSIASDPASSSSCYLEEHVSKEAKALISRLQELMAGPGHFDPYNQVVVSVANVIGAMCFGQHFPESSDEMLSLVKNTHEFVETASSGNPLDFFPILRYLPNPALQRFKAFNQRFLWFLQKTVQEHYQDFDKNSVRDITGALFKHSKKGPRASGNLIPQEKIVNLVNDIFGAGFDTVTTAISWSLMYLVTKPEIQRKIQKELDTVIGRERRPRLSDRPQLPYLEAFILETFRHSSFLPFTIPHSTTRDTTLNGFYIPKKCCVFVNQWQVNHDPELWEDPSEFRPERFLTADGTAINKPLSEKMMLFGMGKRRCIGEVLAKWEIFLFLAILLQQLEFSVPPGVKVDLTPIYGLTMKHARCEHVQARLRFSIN

As for `O=C(OCC12CCN(CC1)CC2)c1c[nH]c2cc(O)cc(Cl)c12` [Compound 46, quinuclidin-4-ylmethyl 4-chloro-6-hydroxy-1H-indole-3-carboxylate], the IC50 was > 30 µM at hERG channels; > 10 µM on CYP2C9; > 10 µM on CYP2C19; > 10 µM at CYP3A4; > 10 µM at CYP1A2.

With `Cc1cc(Cl)c2c(C(=O)OCC34CCN(CC3)CC4)c[nH]c2c1.Cl` [Compound 65, quinuclidin-4-ylmethyl 4-chloro-6-methyl-1H-indole-3-carboxylate hydrochloride], the I/Imax on Human α7 NAChR is reported as 0.212. On hERG channels, this compound yielded an IC50 of 2.43 µM.

`COc1c(OCC(F)(F)F)ccc2[nH]cc(C(=O)OCC34CCN(CC3)CC4)c12` [Compound 88, quinuclidin-4-ylmethyl 4-methoxy-5-(2,2,2-trifluoroethoxy)-1H-indole-3-carboxylate]: the I/Imax on Human α7 NAChR is 0.185. Besides, the efflux ratio at 90 min, 10 μM in data set [1] (pH 7.4, Caco-2, 10 μM) came to 7.86. The same compound yielded a Papp A→B at 90 min, 10 μM in data set [1] (pH 7.4, Caco-2, apical-to-basolateral, 10 μM) of 3.25 ×10⁻⁶ cm/s. Further, in data set [1] (pH 7.4, Caco-2, basolateral-to-apical, 10 μM), the Papp B→A at 90 min, 10 μM is 25.5 ×10⁻⁶ cm/s. Besides, in data set [2], half-maximal inhibition (IC50) required 0.211 µM and the inhibitory constant (Ki) was found to be 0.356 µM.
